Assay results reported in patent US20230139171A1 (SITA Information Networking Computing UK Limited, priority 2019, published 2023).

Columns and labels:
Assay type in all cases: cell-based
human TLR7 = target: T1, human TLR7 (Homo sapiens, UniProt Q9NYK1); test: TLR7 inhibition reporter assay (HEK-Blue cells, SEAP reporter, gardiquimod stimulation); settings: HEK-Blue cells overexpressing human TLR7, SEAP reporter, gardiquimod 7.5 μM; read-out: TLR7 IC50
T1 construct: host or cells: HEK-Blue cells
T1 sequence (Q9NYK1 27-1049): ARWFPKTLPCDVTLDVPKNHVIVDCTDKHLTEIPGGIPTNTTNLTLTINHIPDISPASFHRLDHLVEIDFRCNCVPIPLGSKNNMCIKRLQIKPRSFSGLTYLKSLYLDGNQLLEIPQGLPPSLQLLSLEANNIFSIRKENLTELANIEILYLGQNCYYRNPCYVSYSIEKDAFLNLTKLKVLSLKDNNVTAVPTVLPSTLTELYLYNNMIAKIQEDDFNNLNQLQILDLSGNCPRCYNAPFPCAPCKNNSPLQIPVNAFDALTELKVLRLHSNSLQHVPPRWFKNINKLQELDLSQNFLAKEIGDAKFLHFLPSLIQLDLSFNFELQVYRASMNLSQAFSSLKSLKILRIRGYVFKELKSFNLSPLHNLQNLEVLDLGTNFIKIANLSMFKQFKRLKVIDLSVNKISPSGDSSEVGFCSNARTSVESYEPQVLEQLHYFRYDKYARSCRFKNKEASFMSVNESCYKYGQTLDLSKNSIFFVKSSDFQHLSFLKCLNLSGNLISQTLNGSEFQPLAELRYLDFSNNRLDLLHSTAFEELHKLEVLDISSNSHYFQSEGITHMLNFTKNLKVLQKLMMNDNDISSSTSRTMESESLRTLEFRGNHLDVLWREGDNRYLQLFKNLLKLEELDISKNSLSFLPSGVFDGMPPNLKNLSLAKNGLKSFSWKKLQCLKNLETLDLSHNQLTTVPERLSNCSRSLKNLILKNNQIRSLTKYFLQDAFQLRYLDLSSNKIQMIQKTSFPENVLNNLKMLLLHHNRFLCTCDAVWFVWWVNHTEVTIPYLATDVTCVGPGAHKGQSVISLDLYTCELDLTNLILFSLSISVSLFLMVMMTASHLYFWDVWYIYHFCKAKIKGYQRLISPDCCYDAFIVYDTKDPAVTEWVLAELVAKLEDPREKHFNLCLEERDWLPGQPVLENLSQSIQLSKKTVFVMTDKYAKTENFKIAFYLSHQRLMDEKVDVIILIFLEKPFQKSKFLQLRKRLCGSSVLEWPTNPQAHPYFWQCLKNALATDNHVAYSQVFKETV
In short: (§1)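 Screening used HEK-Blue cells overexpressing one human TLR (7, 8 or 9) and an IFN-β minimal promoter–NF-κB/AP-1 SEAP construct. Stimulation lasted 22 h at 37 °C with receptor-specific agonist: gardiquimod, R848 or ODN2006 at 7.5 μM, 15.9 μM and 5 nM.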

human TLR9 = target: T2, human TLR9 (Homo sapiens, UniProt Q9NR96); test: TLR9 inhibition reporter assay (HEK-Blue cells, SEAP reporter, ODN2006 stimulation); settings: HEK-Blue cells overexpressing human TLR9, SEAP reporter, ODN2006 5 nM
T2 construct: host or cells: HEK-Blue cells
T2 sequence (Q9NR96 26-1032): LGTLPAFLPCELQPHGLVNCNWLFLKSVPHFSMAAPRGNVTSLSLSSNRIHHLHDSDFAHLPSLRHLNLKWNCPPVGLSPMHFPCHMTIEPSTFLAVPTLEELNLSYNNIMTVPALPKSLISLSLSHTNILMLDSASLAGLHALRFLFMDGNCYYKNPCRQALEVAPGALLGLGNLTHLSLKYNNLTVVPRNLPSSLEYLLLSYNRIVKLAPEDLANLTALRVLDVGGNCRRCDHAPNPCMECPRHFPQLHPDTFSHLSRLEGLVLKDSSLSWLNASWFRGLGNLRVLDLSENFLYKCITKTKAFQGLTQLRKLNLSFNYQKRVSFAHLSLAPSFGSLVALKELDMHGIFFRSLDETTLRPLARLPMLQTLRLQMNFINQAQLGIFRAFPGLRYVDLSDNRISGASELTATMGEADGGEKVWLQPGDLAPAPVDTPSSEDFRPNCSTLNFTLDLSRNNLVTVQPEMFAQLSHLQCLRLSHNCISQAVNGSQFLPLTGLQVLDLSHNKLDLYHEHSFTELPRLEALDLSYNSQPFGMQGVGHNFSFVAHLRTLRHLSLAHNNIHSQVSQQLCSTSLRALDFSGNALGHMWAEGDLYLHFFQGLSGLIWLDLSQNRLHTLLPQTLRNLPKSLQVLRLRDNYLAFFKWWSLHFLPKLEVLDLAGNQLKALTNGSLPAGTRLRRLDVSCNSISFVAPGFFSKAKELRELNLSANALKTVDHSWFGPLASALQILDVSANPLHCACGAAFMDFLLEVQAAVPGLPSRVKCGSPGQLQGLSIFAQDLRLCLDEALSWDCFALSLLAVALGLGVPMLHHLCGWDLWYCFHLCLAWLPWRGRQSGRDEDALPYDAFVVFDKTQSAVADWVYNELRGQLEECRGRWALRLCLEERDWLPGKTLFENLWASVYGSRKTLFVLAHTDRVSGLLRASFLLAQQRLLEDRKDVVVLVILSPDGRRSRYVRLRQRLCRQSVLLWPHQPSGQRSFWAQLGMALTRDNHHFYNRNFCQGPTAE
In short: as §1

human TLR8 = target: T3, human TLR8 (Homo sapiens, UniProt Q9NR97); test: TLR8 inhibition reporter assay (HEK-Blue cells, SEAP reporter, R848 stimulation); settings: HEK-Blue cells overexpressing human TLR8, SEAP reporter, R848 15.9 μM; read-out: TLR8 IC50
T3 construct: host or cells: HEK-Blue cells
T3 sequence (Q9NR97 27-1041): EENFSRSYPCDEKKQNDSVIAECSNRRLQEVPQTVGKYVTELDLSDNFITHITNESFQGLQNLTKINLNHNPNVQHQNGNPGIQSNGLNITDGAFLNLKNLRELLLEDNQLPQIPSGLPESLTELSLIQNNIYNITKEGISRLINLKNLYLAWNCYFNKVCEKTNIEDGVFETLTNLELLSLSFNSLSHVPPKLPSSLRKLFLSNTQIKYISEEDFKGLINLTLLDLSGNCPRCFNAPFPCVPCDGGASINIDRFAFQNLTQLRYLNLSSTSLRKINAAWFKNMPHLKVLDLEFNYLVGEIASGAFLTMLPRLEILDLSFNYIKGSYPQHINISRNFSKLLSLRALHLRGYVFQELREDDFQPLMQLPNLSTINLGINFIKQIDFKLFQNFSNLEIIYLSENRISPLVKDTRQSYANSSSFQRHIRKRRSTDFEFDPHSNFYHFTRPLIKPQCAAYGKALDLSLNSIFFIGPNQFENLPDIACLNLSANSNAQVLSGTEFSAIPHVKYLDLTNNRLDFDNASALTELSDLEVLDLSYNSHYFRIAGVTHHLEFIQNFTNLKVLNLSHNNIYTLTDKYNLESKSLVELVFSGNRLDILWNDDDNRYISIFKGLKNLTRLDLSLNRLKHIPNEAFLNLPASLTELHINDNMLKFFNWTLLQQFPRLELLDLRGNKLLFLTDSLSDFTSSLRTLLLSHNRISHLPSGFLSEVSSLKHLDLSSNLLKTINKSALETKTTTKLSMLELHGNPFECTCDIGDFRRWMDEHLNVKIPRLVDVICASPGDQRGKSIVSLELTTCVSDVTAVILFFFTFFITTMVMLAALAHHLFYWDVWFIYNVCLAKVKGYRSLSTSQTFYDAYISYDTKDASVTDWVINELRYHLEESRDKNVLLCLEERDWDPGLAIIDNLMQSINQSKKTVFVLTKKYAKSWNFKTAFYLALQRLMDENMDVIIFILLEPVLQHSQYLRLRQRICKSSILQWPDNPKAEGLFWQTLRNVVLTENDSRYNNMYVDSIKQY
In short: as §1

| Structure (SMILES) | IC50 (human TLR7) [nM] | IC50 (human TLR9) [nM] | IC50 (human TLR8) [nM] |
| --- | --- | --- | --- |
| Cc1c(-c2[nH]c3sc(C4CCC(NC5COC5)CC4)nc3c2C(C)C)cn2ncnc2c1C (single isomer, unassigned) [Example 184, N-(4-(5-(7,8-dimethyl-[1,2,4]triazolo[1,5-a]pyridin-6-yl)-6-isopropyl-4H-pyrrolo[3,2-d]thiazol-2-yl)cyclohexyl)oxetan-3-amine] | 1.01 | 11400 | 0.84 |
| Cc1c(-c2[nH]c3sc(C4CCC(NC5COC5)CC4)nc3c2C(C)C)cn2ncnc2c1C (single isomer, unassigned) [Example 185, N-(4-(5-(7,8-dimethyl-[1,2,4]triazolo[1,5-a]pyridin-6-yl)-6-isopropyl-4H-pyrrolo[3,2-d]thiazol-2-yl)cyclohexyl)oxetan-3-amine] | 7.42 | 23000 | 3.38 |
| COC(C)(C)CNC1CCC(c2nc3c(C(C)C)c(-c4cn5ncnc5c(C)c4C)[nH]c3s2)CC1 (single isomer, unassigned) [Example 186, 4-(5-(7,8-dimethyl-[1,2,4]triazolo[1,5-a]pyridin-6-yl)-6-isopropyl-4H-pyrrolo[3,2-d]thiazol-2-yl)-N-(2-methoxy-2-methylpropyl)cyclohexan-1-amine] | 1.59 | 5920 | 0.21 |
| COC(C)(C)CNC1CCC(c2nc3c(C(C)C)c(-c4cn5ncnc5c(C)c4C)[nH]c3s2)CC1 (single isomer, unassigned) [Example 187, 4-(5-(7,8-dimethyl-[1,2,4]triazolo[1,5-a]pyridin-6-yl)-6-isopropyl-4H-pyrrolo[3,2-d]thiazol-2-yl)-N-(2-methoxy-2-methylpropyl)cyclohexan-1-amine] | 10.4 | 8720 | 4.25 |
| COC1CN(C2CCC(c3nc4c(C(C)C)c(-c5cn6ncnc6c(C)c5C)[nH]c4s3)CC2)C1 (single isomer, unassigned) [Example 188, 5-(7,8-dimethyl-[1,2,4]triazolo[1,5-a]pyridin-6-yl)-6-isopropyl-2-(4-(3-methoxyazetidin-1-yl)cyclohexyl)-4H-pyrrolo[3,2-d]thiazole] | 0.71 | 10800 | 0.58 |
| COC1CN(C2CCC(c3nc4c(C(C)C)c(-c5cn6ncnc6c(C)c5C)[nH]c4s3)CC2)C1 (single isomer, unassigned) [Example 189, 5-(7,8-dimethyl-[1,2,4]triazolo[1,5-a]pyridin-6-yl)-6-isopropyl-2-(4-(3-methoxyazetidin-1-yl)cyclohexyl)-4H-pyrrolo[3,2-d]thiazole] | 3.35 | 10000 | 5.18 |

Further lines, results first:

| IC50 (human TLR7) [nM] | IC50 (human TLR9) [nM] | IC50 (human TLR8) [nM] | Structure (SMILES) |
| --- | --- | --- | --- |
| 9.72 | 7260 | 13.5 | CC(C)c1c(-c2cn(C)c3ncccc23)[nH]c2sc(C3CCC(NC4COC4)CC3)nc12 (single isomer, unassigned) [Example 179, N-(4-(6-isopropyl-5-(1-methyl-1H-pyrrolo[2,3-b]pyridin-3-yl)-4H-pyrrolo[3,2-d]thiazol-2-yl)cyclohexyl)oxetan-3-amine] |
| 3.54 | 5280 | 3.7 | CC(C)c1c(-c2cn(C)c3ncccc23)[nH]c2sc(C3CCC(N4CC5(COC5)C4)CC3)nc12 (single isomer, unassigned) [Example 180, 6-(4-(6-isopropyl-5-(1-methyl-1H-pyrrolo[2,3-b]pyridin-3-yl)-4H-pyrrolo[3,2-d]thiazol-2-yl)cyclohexyl)-2-oxa-6-azaspiro[3.3]heptane] |
| 9.92 | 5660 | 36 | CC(C)c1c(-c2cn(C)c3ncccc23)[nH]c2sc(C3CCC(N4CC5(COC5)C4)CC3)nc12 (single isomer, unassigned) [Example 181, 6-(4-(6-isopropyl-5-(1-methyl-1H-pyrrolo[2,3-b]pyridin-3-yl)-4H-pyrrolo[3,2-d]thiazol-2-yl)cyclohexyl)-2-oxa-6-azaspiro[3.3]heptane] |
| 1.74 | 13500 | 0.76 | CC(C)c1c(-c2cn(C)c3ncccc23)[nH]c2sc(C3CCC(NCC(C)(C)O)CC3)nc12 (single isomer, unassigned) [Example 182, 1-((4-(6-isopropyl-5-(1-methyl-1H-pyrrolo[2,3-b]pyridin-3-yl)-4H-pyrrolo[3,2-d]thiazol-2-yl)cyclohexyl)amino)-2-methylpropan-2-ol] |
| 8.89 | 6790 | 9.41 | CC(C)c1c(-c2cn(C)c3ncccc23)[nH]c2sc(C3CCC(NCC(C)(C)O)CC3)nc12 (single isomer, unassigned) [Example 183, 1-((4-(6-isopropyl-5-(1-methyl-1H-pyrrolo[2,3-b]pyridin-3-yl)-4H-pyrrolo[3,2-d]thiazol-2-yl)cyclohexyl)amino)-2-methylpropan-2-ol] |
